In the NIST ThermoML archive (doi:10.1021/je060271a):
Where “and” joins values, the source holds several entries; their conditions need not be identical. Identical values can stand only once.

Settings: Liquid, Vibrating tube method

CCCCCC(=O)OCC(COC(=O)CCCCC)(COC(=O)CCCCC)COC(=O)CCCCC [pentaerythritol tetrahexanoate]
Settings	mass density
303.15 K, 32445 kPa	1007.6 kg/m3
303.15 K, 32464 kPa	1007.7 kg/m3
303.15 K, 32483 kPa	1007.6 kg/m3
303.15 K, 32506 kPa	1007.5 kg/m3
303.15 K, 32525 kPa	1007.6 kg/m3
303.15 K, 32544 kPa	1007.5 kg/m3
303.15 K, 32567 kPa	1007.6 kg/m3
303.15 K, 32586 kPa	1007.6 kg/m3
303.15 K, 32605 kPa	1007.7 kg/m3
303.15 K, 32624 kPa	1007.6 kg/m3
303.15 K, 32647 kPa	1007.7 kg/m3
303.15 K, 32808 kPa	1007.7 kg/m3
303.15 K, 32832 kPa	1007.7 kg/m3
303.15 K, 32851 kPa	1007.8 kg/m3
303.15 K, 32871 kPa	1007.7 kg/m3
303.15 K, 32895 kPa	1007.8 kg/m3
303.15 K, 33911 kPa	1008.4 kg/m3
303.15 K, 33938 kPa	1008.4 kg/m3
303.15 K, 33963 kPa	1008.4 kg/m3
303.15 K, 33989 kPa	1008.3 kg/m3
303.15 K, 34002 kPa	1008.3 kg/m3
303.15 K, 34011 kPa	1008.3 kg/m3
303.15 K, 34016 kPa	1008.3 kg/m3
303.15 K, 34028 kPa	1008.4 kg/m3
303.15 K, 34041 kPa	1008.4 kg/m3
303.15 K, 34057 kPa	1008.4 kg/m3
303.15 K, 34070 kPa	1008.3 kg/m3
303.15 K, 34166 kPa	1008.4 kg/m3
303.15 K, 34178 kPa	1008.6 kg/m3
303.15 K, 34182 kPa	1008.4 kg/m3
303.15 K, 34186 kPa	1008.5 kg/m3
303.15 K, 34190 kPa	1008.5 kg/m3
303.15 K, 34194 kPa	1008.5 kg/m3
303.15 K, 34195 kPa	1008.6 kg/m3
303.15 K, 34196 kPa	1008.5 kg/m3 and 1008.4 kg/m3
303.15 K, 34197 kPa	1008.5 kg/m3
303.15 K, 34198 kPa	1008.4 kg/m3
303.15 K, 34425 kPa	1008.7 kg/m3
303.15 K, 34426 kPa	1008.6 kg/m3
303.15 K, 34427 kPa	1008.6 kg/m3
303.15 K, 34428 kPa	1008.6 kg/m3
303.15 K, 34430 kPa	1008.8 kg/m3 and 1008.6 kg/m3
303.15 K, 34431 kPa	1008.7 kg/m3
303.15 K, 34432 kPa	1008.8 kg/m3
303.15 K, 34434 kPa	1008.7 kg/m3 and 1008.6 kg/m3
303.16 K, 193.7 kPa	988.5 kg/m3 and 988.4 kg/m3
303.16 K, 193.9 kPa	988.4 kg/m3
303.16 K, 194.1 kPa	988.5 kg/m3 and 988.4 kg/m3
303.16 K, 194.3 kPa	988.6 kg/m3 and 988.4 kg/m3
303.16 K, 194.4 kPa	988.6 kg/m3
303.16 K, 195.5 kPa	988.4 kg/m3
303.16 K, 195.6 kPa	988.5 kg/m3
303.16 K, 195.7 kPa	988.5 kg/m3
303.16 K, 196.9 kPa	988.5 kg/m3
303.16 K, 197.4 kPa	988.5 kg/m3 and 988.4 kg/m3
303.16 K, 197.6 kPa	988.4 kg/m3
303.16 K, 197.7 kPa	988.5 kg/m3
303.16 K, 198.1 kPa	988.5 kg/m3
303.16 K, 199.6 kPa	988.5 kg/m3
303.16 K, 200 kPa	988.5 kg/m3
303.16 K, 200.2 kPa	988.6 kg/m3
303.16 K, 200.3 kPa	988.4 kg/m3
303.16 K, 200.5 kPa	988.5 kg/m3
303.16 K, 200.7 kPa	988.4 kg/m3
303.16 K, 201 kPa	988.5 kg/m3
303.16 K, 201.2 kPa	988.5 kg/m3
303.16 K, 201.4 kPa	988.6 kg/m3 and 988.3 kg/m3
303.16 K, 201.6 kPa	988.4 kg/m3
303.16 K, 201.9 kPa	988.5 kg/m3
303.16 K, 202.2 kPa	988.5 kg/m3
303.16 K, 202.8 kPa	988.5 kg/m3
303.16 K, 202.9 kPa	988.5 kg/m3
303.16 K, 204.2 kPa	988.5 kg/m3
303.16 K, 207.1 kPa	988.5 kg/m3
303.16 K, 207.3 kPa	988.5 kg/m3
303.16 K, 207.8 kPa	988.4 kg/m3
303.16 K, 208 kPa	988.5 kg/m3
303.16 K, 208.2 kPa	988.5 kg/m3
303.16 K, 209 kPa	988.5 kg/m3
303.16 K, 209.2 kPa	988.5 kg/m3
303.16 K, 209.5 kPa	988.6 kg/m3
303.16 K, 209.7 kPa	988.4 kg/m3
303.16 K, 211.5 kPa	988.5 kg/m3
303.16 K, 211.8 kPa	988.5 kg/m3
303.16 K, 212.7 kPa	988.4 kg/m3 and 988.5 kg/m3
303.16 K, 212.9 kPa	988.5 kg/m3
303.16 K, 219.3 kPa	988.6 kg/m3
303.16 K, 220.1 kPa	988.5 kg/m3
303.16 K, 220.8 kPa	988.6 kg/m3
303.16 K, 221.2 kPa	988.6 kg/m3 and 988.4 kg/m3 and 988.5 kg/m3
303.16 K, 221.4 kPa	988.6 kg/m3
303.16 K, 221.5 kPa	988.6 kg/m3
303.16 K, 221.9 kPa	988.5 kg/m3
303.16 K, 222.2 kPa	988.6 kg/m3
303.16 K, 222.4 kPa	988.5 kg/m3
303.16 K, 222.8 kPa	988.6 kg/m3
303.16 K, 223.1 kPa	988.5 kg/m3 and 988.4 kg/m3
303.16 K, 223.3 kPa	988.4 kg/m3
303.16 K, 223.6 kPa	988.5 kg/m3
303.16 K, 223.8 kPa	988.6 kg/m3
303.16 K, 224 kPa	988.4 kg/m3
303.16 K, 224.1 kPa	988.6 kg/m3
303.16 K, 224.5 kPa	988.4 kg/m3
303.16 K, 225 kPa	988.6 kg/m3
303.16 K, 225.2 kPa	988.4 kg/m3
303.16 K, 225.7 kPa	988.5 kg/m3
303.16 K, 226 kPa	988.4 kg/m3
303.16 K, 226.6 kPa	988.4 kg/m3 and 988.6 kg/m3
303.16 K, 227.1 kPa	988.5 kg/m3
303.16 K, 227.3 kPa	988.6 kg/m3 and 988.5 kg/m3
303.16 K, 227.6 kPa	988.5 kg/m3 and 988.4 kg/m3 and 988.6 kg/m3
303.16 K, 231.4 kPa	988.4 kg/m3
303.16 K, 232 kPa	988.5 kg/m3
303.16 K, 232.1 kPa	988.5 kg/m3
303.16 K, 232.7 kPa	988.5 kg/m3
303.16 K, 233.9 kPa	988.5 kg/m3
303.16 K, 234 kPa	988.5 kg/m3 and 988.6 kg/m3
303.16 K, 234.2 kPa	988.5 kg/m3
303.16 K, 234.6 kPa	988.5 kg/m3
303.16 K, 234.9 kPa	988.5 kg/m3
303.16 K, 235.4 kPa	988.6 kg/m3
303.16 K, 235.6 kPa	988.6 kg/m3
303.16 K, 236 kPa	988.5 kg/m3
303.16 K, 236.1 kPa	988.6 kg/m3
303.16 K, 236.3 kPa	988.5 kg/m3 and 988.6 kg/m3
303.16 K, 236.8 kPa	988.6 kg/m3 and 988.5 kg/m3
303.16 K, 237.2 kPa	988.5 kg/m3
303.16 K, 237.5 kPa	988.6 kg/m3
303.16 K, 237.7 kPa	988.5 kg/m3
303.16 K, 238 kPa	988.6 kg/m3 and 988.5 kg/m3
303.16 K, 239.3 kPa	988.5 kg/m3
303.16 K, 239.4 kPa	988.5 kg/m3
303.16 K, 240 kPa	988.5 kg/m3 and 988.6 kg/m3
303.16 K, 240.3 kPa	988.4 kg/m3
303.16 K, 240.5 kPa	988.5 kg/m3
303.16 K, 240.8 kPa	988.5 kg/m3
303.16 K, 241.3 kPa	988.5 kg/m3
303.16 K, 241.5 kPa	988.5 kg/m3
303.16 K, 241.7 kPa	988.5 kg/m3
303.16 K, 242.2 kPa	988.6 kg/m3
303.16 K, 242.6 kPa	988.5 kg/m3
303.16 K, 242.7 kPa	988.6 kg/m3
303.16 K, 242.9 kPa	988.6 kg/m3
303.16 K, 243.3 kPa	988.4 kg/m3
303.16 K, 243.4 kPa	988.5 kg/m3
